Measurements taken from patent US20250215029A1 (Recludix Pharma, Inc., priority 2022, published 2025).
Like-named read-outs stand apart in the source and are kept apart here.

Legend:
[1] = biological target: T1, pY705-STAT3 in PBMC (Homo sapiens, UniProt P40763); assay: MSD-pSTAT-PBMC Assay (pSTAT3, IL-6 stimulated); assay type: cell-based; details: PBMC, compound 3 hrs, then 10 ng/mL IL-6 for 10 min
T1 construct: Cryopreserved Peripheral Blood Mononuclear Cells (PBMC) are from AllCells; host or cells: cryopreserved PBMC
How it was run: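 Inhibition of cytokine-induced STAT phosphorylation was measured in recovered human PBMC after 3 hrs compound exposure and a 10 min IL-4 (1 ng/mL) or IL-6 (10 ng/mL) challenge. MSD detection of pY641-STAT6 or pY705-STAT3 yielded IC50 values.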

[2] = biological target: T2, pY641-STAT6 in PBMC (Homo sapiens, UniProt P42226); assay: MSD-pSTAT-PBMC Assay (pSTAT6, IL-4 stimulated); assay type: cell-based; details: compound 3 hrs, then 1 ng/mL IL-4 for 10 min
T2 construct: Cryopreserved Peripheral Blood Mononuclear Cells (PBMC) are from AllCells; host or cells: cryopreserved PBMC
T2 sequence (P42226 1-847): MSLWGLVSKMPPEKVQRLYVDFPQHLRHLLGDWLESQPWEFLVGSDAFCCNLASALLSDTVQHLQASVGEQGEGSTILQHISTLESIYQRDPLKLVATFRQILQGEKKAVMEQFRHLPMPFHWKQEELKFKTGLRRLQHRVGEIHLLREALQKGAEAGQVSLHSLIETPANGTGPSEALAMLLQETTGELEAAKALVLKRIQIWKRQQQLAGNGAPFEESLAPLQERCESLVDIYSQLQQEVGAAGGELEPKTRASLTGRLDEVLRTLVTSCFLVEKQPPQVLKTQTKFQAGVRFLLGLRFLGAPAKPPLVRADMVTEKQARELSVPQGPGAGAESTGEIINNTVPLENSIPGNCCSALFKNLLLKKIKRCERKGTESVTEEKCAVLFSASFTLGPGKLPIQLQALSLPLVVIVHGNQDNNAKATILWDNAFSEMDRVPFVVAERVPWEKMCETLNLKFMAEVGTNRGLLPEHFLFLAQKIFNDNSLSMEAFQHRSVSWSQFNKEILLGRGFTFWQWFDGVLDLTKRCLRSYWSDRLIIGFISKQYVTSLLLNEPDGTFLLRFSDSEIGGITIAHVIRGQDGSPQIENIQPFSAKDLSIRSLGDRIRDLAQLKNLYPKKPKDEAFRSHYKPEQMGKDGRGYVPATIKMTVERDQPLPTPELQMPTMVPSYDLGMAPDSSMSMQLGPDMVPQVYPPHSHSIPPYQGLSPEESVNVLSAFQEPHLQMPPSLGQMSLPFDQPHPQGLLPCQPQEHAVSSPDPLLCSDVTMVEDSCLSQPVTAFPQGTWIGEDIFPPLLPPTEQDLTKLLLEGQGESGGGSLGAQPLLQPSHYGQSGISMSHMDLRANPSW
How it was run: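 Cells are preincubated with compound for 3 hrs, then stimulated for 10 min, IL-4 at 1 ng/mL driving STAT6 phosphorylation and IL-6 at 10 ng/mL driving STAT3. Phospho-STAT in lysates is quantified by MSD immunoassay, and IC50 is fitted after subtracting unstimulated wells.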

[3] = PBMC, Table 1114, read-out: pSTAT6
[4] = PBMC, Table 115, read-out: STAT6

T1 sequence (P40763 whole entry): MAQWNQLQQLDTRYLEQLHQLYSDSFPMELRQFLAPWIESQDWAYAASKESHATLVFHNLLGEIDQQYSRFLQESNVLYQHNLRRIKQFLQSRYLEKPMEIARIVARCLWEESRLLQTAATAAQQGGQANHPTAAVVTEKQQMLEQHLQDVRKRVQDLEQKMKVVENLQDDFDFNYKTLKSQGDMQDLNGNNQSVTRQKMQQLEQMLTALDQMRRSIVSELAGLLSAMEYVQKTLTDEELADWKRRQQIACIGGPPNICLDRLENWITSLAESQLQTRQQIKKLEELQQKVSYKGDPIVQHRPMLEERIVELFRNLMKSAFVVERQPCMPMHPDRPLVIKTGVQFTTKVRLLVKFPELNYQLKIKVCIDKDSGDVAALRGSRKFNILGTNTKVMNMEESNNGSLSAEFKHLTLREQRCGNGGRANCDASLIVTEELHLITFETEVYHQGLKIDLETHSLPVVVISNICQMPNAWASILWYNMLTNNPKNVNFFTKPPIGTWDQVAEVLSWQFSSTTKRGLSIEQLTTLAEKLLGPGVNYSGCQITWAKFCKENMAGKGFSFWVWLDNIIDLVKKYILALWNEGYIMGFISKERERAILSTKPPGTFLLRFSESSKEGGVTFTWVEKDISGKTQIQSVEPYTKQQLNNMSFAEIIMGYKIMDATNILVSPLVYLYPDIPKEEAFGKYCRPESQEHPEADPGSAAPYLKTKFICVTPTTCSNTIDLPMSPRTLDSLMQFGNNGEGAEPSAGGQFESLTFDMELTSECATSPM

Row | Compound | IC50 ([1]; Table 1114, read-out: pSTAT3) [nM] | IC50 [2, 3] [nM] | IC50 ([1]; Table 115, read-out: STAT3) [nM] | IC50 [2, 4] [nM] | IC50 ([2]; STAT6, PBMC, Table 115) [nM]
1 | CC(C)CC(=O)SCCOP(=O)(OCCSC(=O)CC(C)C)C(F)(F)c1ccc2sc(C(=O)N[C@H]3CCCC(C)[C@H]4CC[C@@H](C(=O)N5C[C@H](c6cc[nH]c(=O)c6)[C@@H](C#N)C5)N4C3=O)cc2c1 (single isomer, unassigned) [Compound 162, S,S′-(((((2-(((3S,6S,10aR)-3-((3R,4S or 3S,4R)-3-cyano-4-(2-oxo-1,2-dihydropyridin-4-yl)pyrrolidine-1-carbonyl)-10-methyl-5-oxodeca-hydropyrrolo[1,2-a]azocin-6-yl)carbamoyl)benzo [b]thiophen-5-yl)difluoromethyl)phosphoryl)bis(oxy))bis(ethane-2,1-diyl)) bis(3-methylbutane thioate)] | 100 to 1000 | 100 to 1000 | – | – | –
2 | CC(C)CC(=O)SCCOP(=O)(OCCSC(=O)CC(C)C)[C@@H](F)c1ccc2sc(C(=O)N[C@H]3CCC[C@H]4CC[C@@H](C(=O)N5CC(c6cccnc6)C5)N4C3=O)cc2c1 [Compound 1089, S,S′-(((((R)-fluoro(2-(((3S,6S,9aS)-5-oxo-3-(3-(pyridin-3-yl)azetidine-1-carbonyl)octahydro-1H-pyrrolo[1,2-a]azepin-6-yl)carbamoyl)benzo [b]thiophen-5-yl)methyl)phosphoryl)bis(oxy))bis(ethane-2,1-diyl)) bis(3-methylbutanethioate] | – | – | < 100 | 100 to 1000 | –
3 | CC(C)(C)C(=O)OCOP(=O)(Cc1ccc2sc(C(=O)N[C@H]3CCCC[C@H]4CC[C@@H](C(=O)N5C[C@@H](C#N)[C@H](c6ccccc6)C5)N4C3=O)cc2c1)OCOC(=O)C(C)(C)C (single isomer, unassigned) [Compound 144, ((((2-(((3S,6S,10aS)-3-((3S,4R or 3R,4S)-3-cyano-4-phenylpyrrolidine-1-carbonyl)-5-oxodecahydro-pyrrolo[1,2-a]azocin-6-yl)carbamoyl)benzo[b]thiophen-5-yl)methyl)phosphoryl)bis (oxy))bis (methylene) bis(2,2-dimethylpropanaote)] | 1000 to 3000 | 100 to 1000 | – | – | –
4 | CCCOC(=O)[C@H](C)NP(=O)(Oc1ccccc1)C(F)c1ccc2sc(C(=O)N[C@H]3CCCC[C@H]4CC[C@@H](C(=O)N5C[C@@H](C#N)[C@H](c6ccccc6)C5)N4C3=O)cc2c1 (single isomer, unassigned) [Compound 315] | – | – | > 3000 | – | < 100
5 | CCCC(=O)SCCOP(=O)(Cc1ccc2sc(C(=O)N[C@H]3CCCC[C@H]4CC[C@@H](C(=O)N5CC(C#N)C(c6ccccc6)C5)N4C3=O)cc2c1)OCCSC(=O)CCC (single isomer, unassigned) [Compound 125, S,S′-(((((2-(((3S,6S,10aS)-3-((3S,4R or 3R,4S)-3-cyano-4-phenylpyrrolidine-1-carbonyl)-5-oxodecahydropyrrolo[1,2-a]azocin-6-yl)carbamoyl)benzo[b]thiophen-5-yl)methyl)phosphoryl)bis(oxy))bis(ethane-2,1-diyl))dibutanethioate] | > 3000 | 1000 to 3000 | – | – | –
6 | S,S′- ((((difluoro(2- (((3S,6S,9aS)-5-oxo-3- (3-(pyridin-3- yl)azetidine-1- carbonyl)octahydro- 1H-pyrrolo[1,2-a] azepin-6-yl) carbamoyl)benzo[b] thiophen-5-yl)methyl) phosphoryl)bis(oxy)) bis(ethane-2,1-diyl)) bis(2,2- dimethylpropanethioate) [Compound 175] | < 100 | 100 to 1000 | – | – | –
7 | CCCOC(=O)[C@H](C)NP(=O)(Oc1ccccc1)C(F)c1ccc2sc(C(=O)N[C@H]3CCCC[C@H]4CC[C@@H](C(=O)N5C[C@@H](c6ccccc6)[C@H](C#N)C56CC6)N4C3=O)cc2c1 (relative stereo) [Compound 325, propyl (((2-(((3S,6S,10aS)-3-((rel-trans)-7-cyano-6-phenyl-4-azaspiro[2.4]heptane-4-carbonyl)-5-oxodecahydropyrrolo [1,2-a]azocin-6-yl)carbamoyl)benzo [b]thiophen-5-yl)fluoromethyl) (phenoxy)phosphoryl)-L-alaninate] | – | – | > 3000 | < 100 | –
8 | CCCOC(=O)[C@H](C)NP(=O)(Oc1ccccc1)[C@H](F)c1ccc2sc(C(=O)N[C@H]3CCC[C@H]4CC[C@@H](C(=O)N5C[C@H](c6cccnc6)[C@@H](C#N)C56CC6)N4C3=O)cc2c1 (single isomer, unassigned) [Compound 354] | – | – | > 3000 | – | < 100

The next lines start with results.

Row | IC50 ([1]; Table 1114, read-out: pSTAT3) [nM] | IC50 [2, 3] [nM] | Compound | IC50 ([1]; Table 115, read-out: STAT3) [nM] | IC50 [2, 4] [nM] | IC50 ([2]; STAT6, PBMC, Table 115) [nM]
9 | < 100 | > 3000 | CC(C)OC(=O)OCOP(=O)(OCOC(=O)OC(C)C)C(F)(F)c1ccc2sc(C(=O)N[C@H]3CCC[C@H]4CC[C@@H](C(=O)N5CC(c6cccnc6)C5)N4C3=O)cc2c1 [Compound 180, (((difluoro(2-(((3S,6S,9aS)-5-oxo-3-(3-(pyridin-3-yl)azetidine-1-carbonyl)octahydro-1H-pyrrolo[1,2-a]azepin-6-yl)carbamoyl)benzo[b]thiophen-5-yl)methyl)phosphoryl)bis(oxy)) bis(methylene) diisopropyl bis(carbonate)] | – | – | –
10 | < 100 | 1000 to 3000 | CC(C)(C)C(=O)SCCOP(=O)(OCCSC(=O)C(C)(C)C)C(F)(F)c1ccc2sc(C(=O)N[C@H]3CCCC[C@H]4CC[C@@H](C(=O)N5CC(c6c[nH]cn6)C5)N4C3=O)cc2c1 [Compound 182, S,S′-(((3S,6S,10aS)-3-(3-(1H-imidazol-4-yl)azetidine-1-carbonyl)-5-oxodecahydropyrrolo [1,2-a]azocin-6-yl)carbamoyl)benzo[b] thiophen-5-yl) difluoromethyl) phosphoryl)bis(oxy)) bis(ethane-2,1-diyl)) bis(2,2-dimethylpropanethioate)] | – | – | –
11 | 100 to 1000 | < 100 | CC(C)(C)C(=O)OCOP(=O)(OCOC(=O)C(C)(C)C)[C@@H](F)c1ccc2sc(C(=O)N[C@H]3CCCC[C@H]4CC[C@@H](C(=O)N5C[C@@H](C#N)[C@H](c6ccccc6)C5)N4C3=O)cc2c1 (single isomer, unassigned) [Compound 184, ((((S)- or (R)-(2-(((3S,6S, 10aS)-3-((3S,4R or 3R,4S)-3-cyano-4-phenyl-pyrrolidine-1-carbonyl)-5-oxodeca-hydropyrrolo [1,2-a]azocin-6-yl)carbamoyl)benzo[b]thiophen-5-yl)fluoromethyl)phosphoryl)bis(oxy)) bis(methylene) bis(2,2-dimethyl-propanoate)] | – | – | –
12 | 100 to 1000 | < 100 | CC(C)(C)C(=O)OCOP(=O)(OCOC(=O)C(C)(C)C)C(F)(F)c1ccc2sc(C(=O)N[C@H]3C[C@@H](O)CC[C@H]4CC[C@@H](C(=O)N5C[C@H](c6ccccc6)[C@@H](C#N)C5)N4C3=O)cc2c1 (single isomer, unassigned) [Compound 185, ((((2-(((3S,6S,8S, 10aR)-3-((3R,4S or 3S,4R)-3-cyano-4-phenyl-pyrrolidine-1-carbonyl)-8-hydroxy-5-oxodeca-hydropyrrolo [1,2-a]azocin-6-yl)carbamoyl)benzo[b]thiophen-5-yl)difluoro-methyl)phos-phoryl)bis(oxy)) bis(methylene) bis(2,2-dimethyl-propanoate)] | – | – | –
